# What was measured:
# Experiment in all cases: microbe, parasite or virus in culture
# Format in all cases: cell-based, influenza A virus
# Details in all cases: for Drug sensitivity: sensitivity of the strain to the named drug
# [1] = system: A/Switzerland/9715293/2013 (H3N2)
# [2] = system: A/WSN/1933 (H1N1)
# [3] = system: A/California/07/2009 (H1N1)
# [4] = system: A/Washington/29/2009 (H1N1)
# [5] = system: A/Denmark/528/2009 (H1N1)
# [6] = system: A/North Carolina/39/2009 (H1N1)
# [7] = system: A/Texas/04/2009 (H1N1)
Structure (SMILES),Drug sensitivity [1],Drug sensitivity [2],Drug sensitivity [3],Drug sensitivity [4],Drug sensitivity [5],Drug sensitivity [6],Drug sensitivity [7],other results
Cc1cc(OCc2nnc(SC3CCCC3)n2-c2cccnc2)ccc1-c1ccc(S(C)(=O)=O)cc1 [NMS-873],,,,,,,,"SI (selectivity index) ([1]; CC50/EC50): 129; EC50 ([1]; Influenza A virus, H3N2, MDCK): 21 ± 2 nM; SI (selectivity index) ([2]; CC50/EC50): 74; EC50 ([2]; Influenza A virus, H1N1|WSN, MDCK): 37 ± 2 nM; SI (selectivity index) ([3]; CC50/EC50): 49; EC50 ([3]; Influenza A virus, H1N1, MDCK): 56 ± 5 nM; SI (selectivity index) ([4]; CC50/EC50): 66; EC50 ([4]; Influenza A virus, H1N1, MDCK): 41 ± 5 nM; SI (selectivity index) ([5]; CC50/EC50): 70; EC50 ([5]; Influenza A virus, H1N1, MDCK): 39 ± 4 nM; SI (selectivity index) ([6]; CC50/EC50): 78; EC50 ([6]; Influenza A virus, H1N1, MDCK): 35 ± 5 nM; SI (selectivity index) ([7]; CC50/EC50): 71; EC50 ([7]; Influenza A virus, H1N1, MDCK): 38 ± 5 nM"
CCC(CC)O[C@@H]1C=C(C(=O)O)C[C@H](N)[C@H]1NC(C)=O [Oseltamivir carboxylate],Sensitive,Sensitive,Sensitive,Amantadine Resistant Oseltamivir Resistant,Amantadine Resistant Oseltamivir Resistant,Amantadine Resistant Oseltamivir Resistant,Amantadine Resistant Oseltamivir Resistant,
"NC12CC3CC(CC(C3)C1)C2 [Amantadine, amantadine]",Amantadine Resistant Oseltamivir Sensitive,Amantadine Resistant Oseltamivir Sensitive,Amantadine Resistant Oseltamivir Sensitive,Amantadine Resistant Oseltamivir Resistant,Amantadine Resistant Oseltamivir Resistant,Amantadine Resistant Oseltamivir Resistant,Amantadine Resistant Oseltamivir Resistant,

# — publication PMC6482079 (European journal of pharmaceutical sciences : official …, 2019)
